Assay: RP, Waters CORTECS UPLC C18, 100 × 2.1 mm, 1.6 µm, 40 °C, 0.4 mL/min, estimated dead time 0.55 min; A: water + 0.1% formic acid, pH 3; B: acetonitrile + 0.1% formic acid, pH 3; gradient (min/%B) 0/5 1.12/5 6.41/99.5 10.01/99.5
Settings: stereoisomer not certain

SMILES | LC retention time [min]
COc1ccc(-c2ccccc2)cc1NNC(=O)OC(C)C [Bifenazate] | 5.09
CCCN(CCC)C(=O)SCc1ccccc1 [Prosulfocarb] | 5.95
CC(CCC(=O)O)C(=O)O (stereo unspecified) [2-METHYLGLUTARATE] | 2.47
CS(=O)(=O)c1cc(C(F)(F)F)ccc1C(=O)c1cnoc1C1CC1 [Isoxaflutole] | 4.85
O=C(O)c1cc(O)c(O)c(O)c1 [Gallic acid] | 0.886
Cn1cnc2c(ncn2C2OC(CO)C(O)C2O)c1=N (stereo unspecified) [1-METHYLADENOSINE] | 0.965
CON(C)C(=O)Nc1ccc(Cl)c(Cl)c1 [Linuron] | 4.8
CC(CCC(=O)NCC(=O)O)C1CCC2C3CCC4CC(O)CCC4(C)C3CC(O)C12C (stereo unspecified) [Glycodeoxycholic acid] | 4.66
O=Cc1cccc(O)c1 [3-HYDROXYBENZALDEHYDE] | 2.13
CCCOCC(=Nc1ccc(Cl)cc1C(F)(F)F)n1ccnc1 [Triflumizol] | 5.16
CNC(=O)C(C)SCCSP(=O)(OC)OC (stereo unspecified) [Vamidothion] | 3.02
O=C(O)CCCCCCCC(O)C(O)CCCCCCO (stereo unspecified) [Aleuritic acid] | 3.52
C#CC(C)(C)NC(=O)c1cc(Cl)cc(Cl)c1 [Propyzamide] | 5.01
CCCCC(=O)OC(CC(=O)[O-])C[N+](C)(C)C [Valeryl-L-carnitine] | 2.66
O=C(O)c1cccnc1C(=O)O [2,3-Pyridinedicarboxylic acid] | 0.763
CCCCCCCCCCCCCCCCCC(=O)OC(CC(=O)[O-])C[N+](C)(C)C [Stearoyl-L-carnitine] | 5.89
O=C(O)c1ccc[nH]1 [PYRROLE-2-CARBOXYLATE] | 0.766
CC(C1CC1)C(O)(Cn1cncn1)c1ccc(Cl)cc1 (stereo unspecified) [Cyproconazole] | 4.78
C[N+](C)(C)CC(CC(=O)[O-])OC(=O)CCCCC(=O)[O-].[H+] [Adipoyl-L-carnitine] | 1.3
CCCCCCCCCCCCCCCCCC[n+]1cccc(S(=O)(=O)[O-])c1 [C18-APS] | 6.58
CC(C)N(C(=O)COc1nnc(C(F)(F)F)s1)c1ccc(F)cc1 [Flufenacet] | 5.22
O=C(O)CCc1c[nH]c2ccccc12 [Indole-3-propionic acid] | 3.7

SMILES | LC retention time [min]
Cc1c(C)c2c(c(C)c1O)CCC(C)(CCCC(C)CCCC(C)CCCC(C)C)O2 (stereo not drawn) [ALPHA-TOCOPHEROL] | 5.92
CC(=O)NCCc1c[nH]c2ccc(O)cc12 [N-ACETYLSEROTONIN] | 2.55
CC(C)(C)c1ccc(CSc2cnn(C(C)(C)C)c(=O)c2Cl)cc1 [Pyridaben] | 6.5
CC(Cc1ccc(C(C)(C)C)cc1)CN1CCCCC1 (stereo unspecified) [Fenpropidine] | 4.27
COc1nc(C)nc(NC(=O)NS(=O)(=O)c2ccccc2OCCCl)n1 [Triasulfuron] | 4.09
CC1CCC2(OC1)OC1CC3C4CC=C5CC(O)CCC5(C)C4CCC3(C)C1C2C (stereo unspecified) [Diosgenin] | 7.3
COc1cc(OC)nc(Oc2cccc(Oc3nc(OC)cc(OC)n3)c2C(=O)[O-])n1.[Na+] [Bispyribac sodium salt] | 4.63
COP(=O)(OC)SCn1c(=O)oc2cc(Cl)cnc21 [Azamethiphos] | 3.91
CNC(=N[N+](=O)[O-])NCC1CCOC1 (stereo unspecified) [Dinotefuran] | 2.2
O=c1[nH]c(=O)c2[nH]cnc2[nH]1 [XANTHINE] | 0.727
COC(=O)Nc1cccc(OC(=O)Nc2cccc(C)c2)c1 [Phenmediphan] | 4.71
O=C(O)CCCc1c[nH]c2ccccc12 [Indole-3-butyric acid] | 3.94
CON=C(C1=NOCCO1)c1ccccc1Oc1ncnc(Oc2ccccc2Cl)c1F [Fluoxastrobin] | 5.22
COc1cccc(C(=O)NN(C(=O)c2cc(C)cc(C)c2)C(C)(C)C)c1C [Methoxyfenozide] | 5.09
Cn1c(=O)c2c(ncn2C)n(C)c1=O [CAFFEINE] | 2.52
CC(C)N1C(=O)N(c2ccccc2)CSC1=NC(C)(C)C [Buprofezin] | 5.45
CSc1nnc(C(C)(C)C)c(=O)n1N [Metribuzin] | 3.98
O=C(O)c1ccc(O)c(O)c1 [3,4-DIHYDROXYBENZOATE] | 1.66
O=Cc1c[nH]c2ccccc12 [Indole-3-carboxaldehyde] | 3.28
Cc1nnc(-c2ccccc2)c(=O)n1N [Metamitron] | 3.09
CC1NCCc2cc(O)c(O)cc21 (stereo unspecified) [SALSOLINOL] | 0.749
CC(C)CC(=O)OC(CC(=O)[O-])C[N+](C)(C)C [Isovaleryl-L-carnitine] | 2.61

SMILES | LC retention time [min]
O=C(NC(=O)c1ccccc1Cl)Nc1ccc(OC(F)(F)F)cc1 [Triflumuron] | 5.42
CCCN(CC)CC1COC2(CCC(C(C)(C)C)CC2)O1 (stereo unspecified) [Spiroxamine] | 4.29
Cc1ccc(-c2c(Cl)nc(C#N)n2S(=O)(=O)N(C)C)cc1 [Cyazofamid] | 5.39
CSCC1OC(n2cnc3c(N)ncnc32)C(O)C1O (stereo unspecified) [METHYLTHIOADENOSINE] | 2.19
NCCc1c[nH]c2ccccc12 [TRYPTAMINE] | 2.43
CCCCCCCCCC=CC(=O)OC(CC(=O)[O-])C[N+](C)(C)C [trans-2-Dodecenoyl-L-carnitine] | 4.5
CN(C)C(=O)Nc1cccc(C(F)(F)F)c1 [Fluometuron] | 4.2
CNC(=O)c1cc(Cl)cc(C)c1NC(=O)c1cc(Br)nn1-c1ncccc1Cl [Chlorantraniliprole] | 4.63
O=C(NC(=O)c1c(F)cccc1F)Nc1ccc(Oc2ccc(C(F)(F)F)cc2Cl)cc1F [Flufenoxuron] | 6.08
CC12CCC(=O)C=C1CCC1C2C(O)CC2(C)C1CCC2(O)C(=O)CO (stereo unspecified) [CORTISOL] | 3.67
CC1COC(Cn2cncn2)(c2ccc(Oc3ccc(Cl)cc3)cc2Cl)O1 (stereo unspecified) [Difenoconazole] | 5.46
CC(=O)OCC(=O)C1CCC2C3CCC4=CC(=O)CCC4(C)C3CCC12C (stereo unspecified) [DEOXYCORTICOSTERONE ACETATE] | 5.2
COc1ccc2[nH]cc(CCNC(C)=O)c2c1 [MELATONIN] | 3.31
O=[N+]([O-])NC1=NCCN1Cc1ccc(Cl)nc1 [Imidacloprid] | 3.19
O=C(O)c1cc(=O)c2ccccc2[nH]1 [KYNURENATE] | 2.35
CCOP(=S)(OCC)Oc1ccc2c(C)c(Cl)c(=O)oc2c1 [Coumaphos] | 5.6
Cc1ccc(NC(=O)N(C)C)cc1Cl [Chlorotoluron] | 4.15
CC=C(C)C(=O)OC(CC(=O)[O-])C[N+](C)(C)C [Tigloyl-L-carnitine] | 2.43
CC(CCC(=O)O)C1CCC2C3CC(O)C4CC(O)CCC4(C)C3CCC12C (stereo unspecified) [Hyodeoxycholic acid] | 4.58
CCC(C)(CC)c1cc(NC(=O)c2c(OC)cccc2OC)on1 [Isoxaben] | 5.08
CCSC(=O)N1CCCCCC1 [Molinate] | 5.03
O=C(NC(=O)c1c(F)cccc1F)Nc1cc(Cl)c(OC(F)(F)C(F)F)c(Cl)c1 [Hexaflumuron] | 5.61

SMILES | LC retention time [min]
CNC(=O)C=C(C)OP(=O)(OC)OC [Monocrotophos] | 2.65
Cc1ccc(C(C)NC(=O)C(NC(=O)OC(C)C)C(C)C)cc1 (stereo unspecified) [Iprovalicarb] | 4.86
Cc1cc(C)nc(NC(=O)NS(=O)(=O)c2ccccc2C(=O)OC2COC2)n1 [Oxasulfuron] | 3.85
CC(C)CCCC(C)C1CCC2C3=CC=C4CC(O)CCC4(C)C3CCC21C (stereo unspecified) [7-dehydrocholesterol] | 7.48
COc1nc(C)nc(NC(=O)NS(=O)(=O)c2ccccc2Cl)n1 [Chlorsulfurson] | 4.12
CCOP(=O)(SC(C)CC)N1CCSC1=O (stereo unspecified) [Fosthiazate] | 4.22
COC(=O)N(C(=O)N1COC2(C(=O)OC)Cc3cc(Cl)ccc3C2=N1)c1ccc(OC(F)(F)F)cc1 (stereo unspecified) [Indoxacarb] | 5.75
COc1cc(C)c(C(=O)c2c(OC)ccc(Br)c2C)c(OC)c1OC [Metrafenone] | 4.52
CC(CCC(=O)O)C1CCC2C3C(=O)CC4CC(=O)CCC4(C)C3CC(=O)C12C (stereo unspecified) [Dehydrocholic acid] | 4.13
C#CCOc1ccc(CCNC(=O)C(OCC#C)c2ccc(Cl)cc2)cc1OC (stereo unspecified) [Mandipropamid] | 4.95
Cc1nn(C)c(Oc2ccccc2)c1C=NOCc1ccc(C(=O)OC(C)(C)C)cc1 [Fenpyroximate] | 6.25
CCS(=O)(=O)c1cccnc1S(=O)(=O)NC(=O)Nc1nc(OC)cc(OC)n1 [Rimsulfuron] | 4.11
CC1C(=O)Nc2ccccc21 (stereo unspecified) [3-METHYL-2-OXINDOLE] | 3.39
CCCCCC=CC(=O)OC(CC(=O)[O-])C[N+](C)(C)C [trans-2-Octenoyl-L-carnitine] | 3.56
O=C(O)c1ccc(C(=O)O)o1 [2,5-Furandicarboxylic acid] | 1.08
COC(=O)c1ccc(CNS(C)(=O)=O)cc1S(=O)(=O)NC(=O)Nc1nc(OC)cc(OC)n1 [Mesosulfuron-methyl] | 4.24
CC(CC(=O)O)C1CCC2C3CCC4CC(O)CCC4(C)C3CC(O)C12C (stereo unspecified) [Nor-Desoxycholic Acid] | 4.88
OC(c1ccc(Cl)cc1)(c1cncnc1)c1ccccc1Cl (stereo unspecified) [Fenarimol] | 4.86
NC(=O)c1ccccc1O [SALICYLAMIDE] | 2.88
CCCCc1c(C)nc(NCC)nc1OS(=O)(=O)N(C)C [Bupirimate] | 3.29
